Experiment [1] concerns Puccinia recondita f. sp. Tritici. Nature of the experiment: Fungicidal activity against Puccinia recondita f. sp. Tritici / wheat / leaf disc preventative (brown rust). The format is in vivo. The conditions noted are these: foliar, 200 ppm in the applied formulation, wheat leaf segments cv. Kanzler, inoculated 1 day after application, vs untreated control, read-out: disease control. The method, then: Leaf disks or leaf segments of various plant species are cut from plants grown in a greenhouse. The cut leaf disks or segments are placed in multiwell plates (24-well format) onto water agar. The leaf disks are sprayed with a test solution before (preventative) or after (curative) inoculation. Compounds to be tested are prepared as DMSO solutions (max. 10 mg/ml) which are diluted to the appropriate concentration with 0.025% Tween20 just before spraying. The inoculated leaf disks or segments are incubated under defined conditions (temperature, relative humidity, light, etc.) according to the respective test system. A single evaluation of disease level is carried out 3 to 14 days after inoculation, depending on the pathosystem. Percent disease control relative to the untreated check leaf disks or segments is then calculated. Wheat leaf segments cv. Kanzler were placed on agar in multiwell plates (24-well format) and sprayed with the formulated test compound diluted in water. The leaf disks were inoculated with a spore suspension of the fungus 1 day after application. The inoculated leaf segments were incubated at 19° C. and 75% relative humidity (rh) under a light regime of 12 hours light/12 hours darkness in a climate cabinet and the activity of a compound was assessed as percent disease control compared to untreated when an appropriate level of disease damage appears in untreated check leaf segments (7 to 9 days after application). The following compounds at 200 ppm in the applied formulation give at least 80% disease control in this test when compared to untreated control leaf disks under the same conditions, which show extensive disease development.

The next experiment concerns Phakopsora pachyrhizi. The experiment can be described thus: Fungicidal activity against Phakopsora pachyrhizi / soybean / leaf disc preventative (Asian soybean rust). The class given is in vivo. As to conditions: foliar, 200 ppm in the applied formulation, soybean leaf disks, vs untreated control, read-out: disease control. The method, then: Leaf disks or leaf segments of various plant species are cut from plants grown in a greenhouse. The cut leaf disks or segments are placed in multiwell plates (24-well format) onto water agar. The leaf disks are sprayed with a test solution before (preventative) or after (curative) inoculation. Compounds to be tested are prepared as DMSO solutions (max. 10 mg/ml) which are diluted to the appropriate concentration with 0.025% Tween20 just before spraying. The inoculated leaf disks or segments are incubated under defined conditions (temperature, relative humidity, light, etc.) according to the respective test system. A single evaluation of disease level is carried out 3 to 14 days after inoculation, depending on the pathosystem. Percent disease control relative to the untreated check leaf disks or segments is then calculated. Soybean leaf disks are placed on water agar in multiwell plates (24-well format) and sprayed with the formulated test compound diluted in water. One day after application leaf discs are inoculated by spraying a spore suspension on the lower leaf surface. After an incubation period in a climate cabinet of 24-36 hours in darkness at 20° C. and 75% rh leaf disc are kept at 20° C. with 12 hours light/12 hours and 75% rh. The activity of a compound is assessed as percent disease control compared to untreated when an appropriate level of disease damage appears in untreated check leaf disks (12 to 14 days after application). The following compounds at 200 ppm in the applied formulation give at least 80% disease control in this test when compared to untreated control leaf disks under the same conditions, which show extensive disease development.

For experiment [2], the system named is Glomerella lagenarium (Colletotrichum lagenarium). Nature of the experiment: Fungicidal activity against Glomerella lagenarium (Colletotrichum lagenarium) liquid culture / cucumber / preventative (anthracnose). The class given is cell-based. The conditions noted are these: Colletotrichum orbiculare, 72 h; 20 ppm in the applied formulation; liquid culture (PDB), growth inhibition measured photometrically 3 to 4 days after application; vs untreated control; read-out: disease control. How it is done: Mycelia fragments or conidia suspensions of a fungus prepared either freshly from liquid cultures of the fungus or from cryogenic storage, are directly mixed into nutrient broth. DMSO solutions of the test compound (max. 10 mg/ml) are diluted with 0.025% Tween20 by a factor of 50 and 10 μl of this solution is pipetted into a microtiter plate (96-well format). The nutrient broth containing the fungal spores/mycelia fragments is then added to give an end concentration of the tested compound. The test plates are incubated in the dark at 24° C. and 96% relative humidity. The inhibition of fungal growth is determined photometrically after 2 to 7 days, depending on the pathosystem, and percent antifungal activity relative to the untreated check is calculated.
Conidia of the fungus from cryogenic storage are directly mixed into nutrient broth (PDB—potato dextrose broth). After placing a (DMSO) solution of test compound into a microtiter plate (96-well format), the nutrient broth containing the fungal spores is added. The test plates are incubated at 24° C. and the inhibition of growth is measured photometrically 3 to 4 days after application.
The following compounds at 20 ppm in the applied formulation give at least 80% disease control in this test when compared to untreated control under the same conditions, which show extensive disease development.

Bounds are passed on as bounds.

In the case of `O=C(NCC=NOCc1ccccc1Cl)c1ccc(-c2noc(C(F)(F)F)n2)cc1` [Compound 1.67, N-[2-[(2-chlorophenyl)methoxyimino]ethyl]-4-[5-(trifluoromethyl)-1,2,4-oxadiazol-3-yl]benzamide], the pest or weed control at 200 ppm (in experiment [1]; in the experiment on Phakopsora pachyrhizi) was not below 80% throughout. In addition, the inhibition of growth at 20 ppm in experiment [2] was not below 80%.
For the molecule `COc1cccc(CON=CCNC(=O)c2ccc(-c3noc(C(F)(F)F)n3)cc2)c1` [Compound 1.62, N-[2-[(3-methoxyphenyl)methoxyimino]ethyl]-4-[5-(trifluoromethyl)-1,2,4-oxadiazol-3-yl]benzamide], the pest or weed control at 200 ppm (in experiment [1]; in the experiment on Phakopsora pachyrhizi) was not below 80% each time. Further, in experiment [2], the inhibition of growth at 20 ppm is not below 80%.
For the molecule `CC(C=NOC1CCCCO1)NC(=O)c1ccc(-c2noc(C(F)(F)F)n2)cc1` (stereo not drawn) [Compound 1.25, N-(1-methyl-2-tetrahydropyran-2-yloxyimino-ethyl)-4-[5-(trifluoromethyl)-1,2,4-oxadiazol-3-yl]benzamide], the pest or weed control at 200 ppm (in experiment [1]; in the experiment with Phakopsora pachyrhizi) was not below 80% throughout. Moreover, the inhibition of growth at 20 ppm in experiment [2] was not below 80%.
On to `CC(CNC(=O)c1ccc(-c2noc(C(F)(F)F)n2)cc1)=NOCC=C(Cl)Cl` [Compound 1.122, N-[2-(3,3-dichloroallyloxy-imino)propyl]-4-[5-(trifluoromethyl)-1,2,4-oxadiazol-3-yl]benzamide], for which the pest or weed control at 200 ppm (in experiment [1]; in the experiment with Phakopsora pachyrhizi) was not below 80% throughout. Further, the inhibition of growth at 20 ppm in experiment [2] was not below 80%.
As for `CC(CNC(=O)c1ccc(-c2noc(C(F)(F)F)n2)cc1)=NOCC=CCl` [Compound 1.121, N-[2-(3-chloroallyloxy-imino)propyl]-4-[5-(trifluoromethyl)-1,2,4-oxadiazol-3-yl]benzamide], the pest or weed control at 200 ppm (in experiment [1]; with Phakopsora pachyrhizi) was not below 80% in each case. In experiment [2], the inhibition of growth at 20 ppm is not below 80%.
As for `COC(=O)Cc1ccccc1CON=CC(C)NC(=O)c1ccc(-c2noc(C(F)(F)F)n2)cc1` (stereo not drawn) [Compound 1.49, methyl 2-[2-[[2-[[4-[5-(trifluoromethyl)-1,2,4-oxadiazol-3-yl]benzoyl]amino]propylideneamino]oxymethyl]phenyl]acetate], in experiment [1], the pest or weed control at 200 ppm is not below 80%. Further, the inhibition of growth at 20 ppm in experiment [2] was not below 80%.
In the case of `COc1cccc(CON=C(C)CNC(=O)c2ccc(-c3noc(C(F)(F)F)n3)cc2)c1` [Compound 1.106, N-[2-[(3-methoxyphenyl)methoxyimino]propyl]-4-[5-(trifluoromethyl)-1,2,4-oxadiazol-3-yl]benzamide], the pest or weed control at 200 ppm in experiment [1] was not below 80%. Further, the inhibition of growth at 20 ppm in experiment [2] is not below 80%.
In the case of `CC(CNC(=O)c1ccc(-c2noc(C(F)(F)F)n2)cc1)=NOCc1ccccc1CC(=O)O` [Compound 1.136, 2-[2-[[[1-methyl-2-[[4-[5-(trifluoromethyl)-1,2,4-oxadiazol-3-yl]benzoyl]amino]ethylidene]amino]oxymethyl]phenyl]acetic acid], the pest or weed control at 200 ppm in experiment [1] was not below 80%. In experiment [2], the inhibition of growth at 20 ppm was not below 80%.
With `O=C(NCC=NOCc1cccc(Cl)c1)c1ccc(-c2noc(C(F)(F)F)n2)cc1` [Compound 1.97, N-[2-[(3-chlorophenyl)methoxyimino]ethyl]-4-[5-(trifluoromethyl)-1,2,4-oxadiazol-3-yl]benzamide], in experiment [1], the pest or weed control at 200 ppm is not below 80%.
`CC(C=NOCc1ccc(F)cc1)NC(=O)c1ccc(-c2noc(C(F)(F)F)n2)cc1` (stereo not drawn) [Compound 1.52, N-[2-[(4-fluorophenyl)methoxyimino]-1-methyl-ethyl]-4-[5-(trifluoromethyl)-1,2,4-oxadiazol-3-yl]benzamide]: in the experiment with Phakopsora pachyrhizi, the pest or weed control at 200 ppm is not below 80%. Also, in experiment [2], the inhibition of growth at 20 ppm is not below 80%.
Regarding `CC(C=NOCC1CC1)NC(=O)c1ccc(-c2noc(C(F)(F)F)n2)cc1` (stereo not drawn) [Compound 1.57, N-[2-(cyclopropyl-methoxyimino)-1-methyl-ethyl]-4-[5-(trifluoromethyl)-1,2,4-oxadiazol-3-yl]benzamide], the pest or weed control at 200 ppm in the experiment with Phakopsora pachyrhizi was not below 80%. In addition, in experiment [2], the inhibition of growth at 20 ppm was not below 80%.
In the case of `O=C(NCC=NOCc1ccc(Cl)cc1)c1ccc(-c2noc(C(F)(F)F)n2)cc1` [Compound 1.103, N-[2-[(4-chlorophenyl)methoxyimino]ethyl]-4-[5-(trifluoromethyl)-1,2,4-oxadiazol-3-yl]benzamide], the pest or weed control at 200 ppm in experiment [1] was not below 80%.
As for `CCCCON=CCNC(=O)c1ccc(-c2noc(C(F)(F)F)n2)cc1` [Compound 1.85, N-(2-butoxyiminoethyl)-4-[5-(trifluoromethyl)-1,2,4-oxadiazol-3-yl]benzamide], the pest or weed control at 200 ppm in the experiment with Phakopsora pachyrhizi is not below 80%. The inhibition of growth at 20 ppm in experiment [2] was not below 80%.
As to `O=C(NCC=NOCc1ccc([N+](=O)[O-])cc1)c1ccc(-c2noc(C(F)(F)F)n2)cc1` [Compound 1.61, N-[2-[(4-nitrophenyl)methoxyimino]ethyl]-4-[5-(trifluoromethyl)-1,2,4-oxadiazol-3-yl]benzamide], the pest or weed control at 200 ppm (in experiment [1]; in the experiment with Phakopsora pachyrhizi) was not below 80% throughout.
Regarding `CC(CNC(=O)c1ccc(-c2noc(C(F)(F)F)n2)cc1)=NOCC(=O)O` [Compound 1.109, 2-[[1-methyl-2-[[4-[5-(trifluoromethyl)-1,2,4-oxadiazol-3-yl]benzoyl]amino]ethylidene]amino] oxyacetic acid], the pest or weed control at 200 ppm in experiment [1] was not below 80%. For the same molecule, in experiment [2], the inhibition of growth at 20 ppm is not below 80%.
Turning to `CC(CNC(=O)c1ccc(-c2noc(C(F)(F)F)n2)cc1)=NOCc1ccccc1` [Compound 1.134, N-(2-benzyloxyimino-propyl)-4-[5-(trifluoromethyl)-1,2,4-oxadiazol-3-yl]benzamide], the pest or weed control at 200 ppm in the experiment on Phakopsora pachyrhizi is not below 80%. The inhibition of growth at 20 ppm in experiment [2] was not below 80%.
Regarding `CC(CNC(=O)c1ccc(-c2noc(C(F)(F)F)n2)cc1)=NOCc1ccc([N+](=O)[O-])cc1` [Compound 1.105, N-[2-[(4-nitrophenyl)methoxyimino]propyl]-4-[5-(trifluoromethyl)-1,2,4-oxadiazol-3-yl]benzamide], the pest or weed control at 200 ppm in experiment [1] is not below 80%.
For `CCCON=CC(C)NC(=O)c1ccc(-c2noc(C(F)(F)F)n2)cc1` (stereo not drawn) [Compound 1.27, N-(1-methyl-2-propoxyimino-ethyl)-4-[5-(trifluoromethyl)-1,2,4-oxadiazol-3-yl]benzamide], in the experiment with Phakopsora pachyrhizi, the pest or weed control at 200 ppm is not below 80%. Also, the inhibition of growth at 20 ppm in experiment [2] was not below 80%.
For `CC(C=NOCc1ccccc1Cl)NC(=O)c1ccc(-c2noc(C(F)(F)F)n2)cc1` (stereo not drawn) [Compound 1.22, N-[2-[(2-chlorophenyl)methoxyimino]-1-methyl-ethyl]-4-[5-(trifluoromethyl)-1,2,4-oxadiazol-3-yl]benzamide], the pest or weed control at 200 ppm in the experiment with Phakopsora pachyrhizi was not below 80%. Moreover, the inhibition of growth at 20 ppm in experiment [2] was not below 80%.
In the case of `CC(C=NOCC=C(Cl)Cl)NC(=O)c1ccc(-c2noc(C(F)(F)F)n2)cc1` (stereo not drawn) [Compound 1.34, N-[2-(3,3-dichloroallyl-oxyimino)-1-methyl-ethyl]-4-[5-(trifluoromethyl)-1,2,4-oxadiazol-3-yl]benzamide], the pest or weed control at 200 ppm in the experiment with Phakopsora pachyrhizi was not below 80%. Further, the inhibition of growth at 20 ppm in experiment [2] is not below 80%.
